Experimental findings from patent publication US20220354835A1, “COMPOUNDS FOR DEGRADING TAU PROTEIN AGGREGATES AND USES THEREOF” (Aprinoia Therapeutics Limited, priority 2019, published 2022) are described below.

Data set [1] has as its target T1, heparin-induced aggregated tau (aTau), full-length 2N4R human Tau (Homo sapiens, UniProt P10636).
T1 construct: transformed with a full-length 2N4R tau expression plasmid; made in house; host or cells: E. coli BL21
Kind of data set: PBB5 competition assay. It is filed as binding. To be noted: 0.12 μM aTau.

The nature of data set [2]: In vivo pharmacokinetic study of plasma and brain tissue. The note with it: mice, 1 mg/kg, intravenous. The procedure:
To determine whether the compounds of the present disclosure are capable of crossing the blood brain barrier (BBB), example compound 160313 was administered to mice in a pharmacokinetic study (1 mg/kg, intravenous) of plasma and brain tissue.
Animal Husbandry: Mice were housed at animal room environment with ventilation 15 times/hour, lighting 12 hours/day, temperature 20° C. to 24° C. and humidity 40% to 70%. The study rooms were disinfected and cleaned prior to the start of the study and the operation area was cleaned after each dosing or sampling during the study conduct. All animals had free access to food and water during the study. The animals had access to Certified Rodent Diet and water ad libitum. The nutritional composition and levels of contaminants of the diet and impurities and contaminants of the water were monitored by third organization. The health status of the animals was evaluated in accordance with accepted animal husbandry procedures and deemed suitable for experimental use. […]
Bioanalytical Method Development: The concentrations of compound in plasma and brain samples were determined using a liquid chromatography with tandem mass spectrometry (LC-MS/MS) based method.

T1 sequence (P10636 1-441 isoform P10636-8): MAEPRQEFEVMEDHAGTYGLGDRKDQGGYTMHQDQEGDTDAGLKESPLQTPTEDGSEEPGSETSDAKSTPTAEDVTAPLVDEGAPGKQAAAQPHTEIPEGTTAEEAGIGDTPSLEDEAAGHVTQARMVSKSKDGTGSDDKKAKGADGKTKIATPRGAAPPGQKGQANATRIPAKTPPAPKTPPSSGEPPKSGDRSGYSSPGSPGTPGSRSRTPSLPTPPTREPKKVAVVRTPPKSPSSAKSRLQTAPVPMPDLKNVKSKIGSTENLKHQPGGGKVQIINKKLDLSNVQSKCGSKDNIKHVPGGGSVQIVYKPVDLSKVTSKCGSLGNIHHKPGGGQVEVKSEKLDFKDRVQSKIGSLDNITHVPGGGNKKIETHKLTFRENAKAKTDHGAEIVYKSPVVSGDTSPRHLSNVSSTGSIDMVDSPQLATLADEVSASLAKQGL

As for `CN(C)c1ccc(-c2ccc(-c3nc4ccc(NCCOCCOc5ccc6c(c5)CN(C5CCC(=O)NC5=O)C6=O)cc4s3)cc2)cn1` (stereo not drawn) [Compound 160313, 3-[6-[2-[2-[[2-[4-[6-(dimethylamino)pyridin-3-yl]phenyl]-1,3-benzothiazol-6-yl]amino]ethoxy]ethoxy]-3-oxo-1H-isoindol-2-yl]piperidine-2,6-dione], the IC50 in data set [1] (0.1 μM PBB5, 37° C. 1 hour, PBB5 fluorescence 530/690 nm) worked out at 0.22 µM. In addition, the Emax in data set [1] (0.1 μM PBB5, compound up to 10 μM, read-out: Competition Assay with PBB5: Bmax (%)) is 64%. Besides, the “Cmax, Brain” value in data set [2] was 0.111 µg/mL.
